Results: ChEMBL document CHEMBL1201862, “PubChem BioAssay data set” (2004)
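Growth conditions: 96-well plates. Treatment: test compound, 48 hours, 5 concentrations. Analysis: linear interpolation between bracketing concentrations; unreached endpoints set to highest concentration. Here, GI50 denotes the concentration required for 50% inhibition of growth.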 Active and inactive are the calls of the source. No stated cut-off is given here; in the data, active = GI50 up to about 1.1 µM and inactive = higher.

How the values were obtained:
Assay in all cases: growth of human tumour cells (NCI), 48 h
BT-549 = test system: BT-549
COLO 205 = test system: COLO 205
EKVX = test system: EKVX
HCT-116 = test system: HCT-116
HCT-15 = test system: HCT-15
Hs-578T = test system: Hs-578T
K562 = test system: K562
KM12 = test system: KM12
LOX IMVI = test system: LOX IMVI
M14 = test system: M14
NCI-H460 = test system: NCI-H460
OVCAR-5 = test system: OVCAR-5
OVCAR-8 = test system: OVCAR-8
PC-3 = test system: PC-3
SF-268 = test system: SF-268
UO-31 = test system: UO-31
DU-145 = test system: DU-145
SNB-75 = test system: SNB-75
MDA-N = test system: MDA-N

SMILES	GI50 (BT-549)	GI50 (COLO 205)	GI50 (EKVX)	GI50 (HCT-116)	GI50 (HCT-15)	GI50 (Hs-578T)	GI50 (K562)	GI50 (KM12)	GI50 (LOX IMVI)	GI50 (M14)	GI50 (NCI-H460)	GI50 (OVCAR-5)	GI50 (OVCAR-8)	GI50 (PC-3)	GI50 (SF-268)	GI50 (UO-31)	GI50 (DU-145)	GI50 (SNB-75)	GI50 (MDA-N)
Oc1cccc(-c2cc(=S)ss2)c1	16.7 µM (inactive)	18.4 µM (inactive)	16.1 µM (inactive)	17.9 µM (inactive)	15.1 µM	16.3 µM (inactive)	8.57 µM (inactive)	18.6 µM (inactive)	14.8 µM (inactive)	20.6 µM (inactive)	17.1 µM (inactive)	15.9 µM (inactive)	17.7 µM (inactive)	14.4 µM (inactive)	16.9 µM (inactive)	14.3 µM (inactive)			
COC(=O)C1=C(OC(=O)/C(=C/c2ccc(Cl)cc2)c2ccccc2)C(C(=O)OC)[C@@]2(O)[C@@H](C(=O)OC)[C@H](C)C[C@@H]1[C@@H]2C(=O)OC (stereo partly specified)	22.2 µM (inactive)	> 100 µM (inactive)	27.2 µM (inactive)	> 100 µM (inactive)	> 100 µM	37 µM (inactive)	> 100 µM (inactive)	> 100 µM (inactive)	> 100 µM (inactive)	> 100 µM (inactive)	61.4 µM (inactive)	> 100 µM (inactive)	4.45 µM (inactive)	37.5 µM (inactive)	> 100 µM (inactive)	> 100 µM (inactive)	> 100 µM (inactive)	29.6 µM (inactive)	
CC(=O)OC12c3ccccc3-c3ccccc3C1C(C(=O)O)C2(Cl)C(=O)O (stereo unspecified)		> 10 µM (inactive)	> 10 µM (inactive)		> 10 µM	> 10 µM (inactive)	> 10 µM (inactive)	> 10 µM (inactive)	> 10 µM (inactive)	> 10 µM (inactive)	> 10 µM (inactive)	> 10 µM (inactive)	> 10 µM (inactive)	> 10 µM (inactive)	> 10 µM (inactive)	> 10 µM (inactive)	> 10 µM (inactive)	> 10 µM (inactive)	> 10 µM (inactive)
CCOC(=O)/C(=C\NC(=S)Nc1ccc(OCC)cc1)C(=O)c1ccccc1		> 100 µM (inactive)	> 100 µM (inactive)	> 100 µM (inactive)	> 100 µM	57.9 µM (inactive)	> 100 µM (inactive)	> 100 µM (inactive)	> 100 µM (inactive)	> 100 µM (inactive)	> 100 µM (inactive)	> 100 µM (inactive)	> 100 µM (inactive)	> 100 µM (inactive)	> 100 µM (inactive)		> 100 µM (inactive)	44.2 µM (inactive)	> 100 µM (inactive)
O=C(NN1C(=O)C(Cl)C1c1ccc(Cl)cc1)c1c(Cl)c(Cl)c(Cl)c(Cl)c1-c1nc2ccccc2[nH]1 (stereo unspecified)	24.4 µM (inactive)	18.3 µM (inactive)	20.7 µM (inactive)	15.5 µM (inactive)	17.6 µM	41.5 µM (inactive)	20.1 µM (inactive)	31.4 µM (inactive)	16.5 µM (inactive)	20.8 µM (inactive)	16.7 µM (inactive)	37.2 µM (inactive)	17.8 µM (inactive)	25.6 µM (inactive)	25.8 µM (inactive)	22.6 µM (inactive)	16.4 µM (inactive)	19.2 µM (inactive)	
CCOC(=O)C(C(=S)Nc1ccccc1)c1nn2c(=O)cc(C)nc2s1 (stereo unspecified)	25.2 µM (inactive)	20.1 µM (inactive)	21.6 µM (inactive)	20.8 µM (inactive)	27.7 µM	41 µM (inactive)	20.9 µM (inactive)	25.4 µM (inactive)	14.4 µM (inactive)	22.9 µM (inactive)	31.6 µM (inactive)	35.3 µM (inactive)	23.6 µM (inactive)	24.8 µM (inactive)	28.8 µM (inactive)	22.2 µM (inactive)	36.3 µM (inactive)	16.9 µM (inactive)	
CCOC(=O)N1CCC2(CC1)C[C@@](C(C)=O)(c1ccccc1)C(C)O2 (stereo partly specified)		> 100 µM (inactive)	> 100 µM (inactive)		> 100 µM	> 100 µM (inactive)	> 100 µM (inactive)	> 100 µM (inactive)	> 100 µM (inactive)	> 100 µM (inactive)	> 100 µM (inactive)	> 100 µM (inactive)	> 100 µM (inactive)	> 100 µM (inactive)	> 100 µM (inactive)	> 100 µM (inactive)	> 100 µM (inactive)	80.7 µM (inactive)	85.1 µM (inactive)
C=C(C)C#CC(O)(C(=O)OC1CCN(C)CC1)C(C)C (stereo unspecified)		> 100 µM (inactive)	> 100 µM (inactive)	> 100 µM (inactive)	> 100 µM		> 100 µM (inactive)	> 100 µM (inactive)	> 100 µM (inactive)	> 100 µM (inactive)		> 100 µM (inactive)	> 100 µM (inactive)	> 100 µM (inactive)	> 100 µM (inactive)	> 100 µM (inactive)	> 100 µM (inactive)	> 100 µM (inactive)	> 100 µM (inactive)
C/C(=N\NC(=S)N1CCCCCC1)c1cccc2cccnc12	16 µM (inactive)	0.459 µM (active)	1.29 µM (inactive)	0.634 µM (active)	0.287 µM	19.7 µM (inactive)	0.131 µM (active)	1.42 µM (inactive)	0.767 µM (active)	1.55 µM (inactive)	0.681 µM (active)	> 19.9 µM (inactive)	1.38 µM (inactive)	3.81 µM (inactive)	4.29 µM (inactive)	1.94 µM (inactive)	2.95 µM (inactive)	23 µM (inactive)	
CN(C)c1n/c(=N/Cc2ccccn2)ss1		> 10 µM (inactive)	> 10 µM (inactive)	7.98 µM (inactive)	9.68 µM	> 10 µM (inactive)	2.51 µM (inactive)	> 9.57 µM (inactive)	2.51 µM (inactive)	> 8.89 µM (inactive)	> 10 µM (inactive)	7.38 µM (inactive)	> 5.3 µM (inactive)	> 10 µM (inactive)	> 10 µM (inactive)	> 10 µM (inactive)	> 10 µM (inactive)	> 10 µM (inactive)	> 10 µM (inactive)
N#Cc1ccc(C(O)C(F)(F)c2nc3ccccc3o2)cc1 (stereo unspecified)	71.4 µM (inactive)	> 100 µM (inactive)	> 100 µM (inactive)	92.3 µM (inactive)	> 100 µM	> 100 µM (inactive)	18.2 µM (inactive)	96.2 µM (inactive)	42.9 µM (inactive)	55.2 µM (inactive)	> 100 µM (inactive)		98.6 µM (inactive)	33.1 µM (inactive)	> 100 µM (inactive)	30.3 µM (inactive)	35.7 µM (inactive)	> 100 µM (inactive)	
C=C(Cl)C(Cl)(CCl)CCC(Br)C(C)(C)Br (stereo unspecified)	> 10 µM (inactive)	> 10 µM (inactive)	> 10 µM (inactive)	> 10 µM (inactive)	> 10 µM		> 10 µM (inactive)	> 10 µM (inactive)		> 10 µM (inactive)		> 10 µM (inactive)	> 10 µM (inactive)	> 10 µM (inactive)	> 10 µM (inactive)	> 10 µM (inactive)	> 10 µM (inactive)	> 10 µM (inactive)	> 10 µM (inactive)
CN(C)c1ccc(/C=C2\CCCCCC2=O)cc1	81.5 µM (inactive)	> 100 µM (inactive)	> 100 µM (inactive)	57.3 µM (inactive)			> 100 µM (inactive)	> 100 µM (inactive)		79.1 µM (inactive)	31.6 µM (inactive)	> 100 µM (inactive)	> 100 µM (inactive)	65 µM (inactive)	> 100 µM (inactive)	50.6 µM (inactive)	> 100 µM (inactive)	> 100 µM (inactive)	> 100 µM (inactive)
CNc1ccccc1S(=O)(=O)c1ccccc1[N+](=O)[O-]	23.6 µM (inactive)	> 100 µM (inactive)	> 100 µM (inactive)	66.5 µM (inactive)	46.3 µM	40.2 µM (inactive)	42.6 µM (inactive)	> 100 µM (inactive)	53 µM (inactive)	52.7 µM (inactive)	58.7 µM (inactive)	> 100 µM (inactive)	> 10 µM (inactive)	52.4 µM (inactive)	> 100 µM (inactive)	43.6 µM (inactive)	> 100 µM (inactive)	52.4 µM (inactive)	
O=C(/C(=C\I)c1ccccc1)c1ccccc1	16.3 µM (inactive)	3.63 µM (inactive)	18.3 µM (inactive)	11.6 µM (inactive)	3.33 µM	3.75 µM (inactive)	3.31 µM (inactive)	2.71 µM (inactive)	12.7 µM (inactive)	15 µM (inactive)	10.9 µM (inactive)	17.5 µM (inactive)	4.32 µM (inactive)	2.71 µM (inactive)	13.9 µM (inactive)	7.78 µM (inactive)	7.16 µM (inactive)	9.42 µM (inactive)	
NC(=O)c1nnsc1NC=O		> 100 µM (inactive)	> 100 µM (inactive)	> 100 µM (inactive)	> 100 µM	> 100 µM (inactive)	> 100 µM (inactive)	> 100 µM (inactive)	> 100 µM (inactive)	> 100 µM (inactive)	> 100 µM (inactive)	> 100 µM (inactive)	> 100 µM (inactive)	> 100 µM (inactive)	> 100 µM (inactive)	> 100 µM (inactive)	> 100 µM (inactive)	> 100 µM (inactive)	> 100 µM (inactive)
